± gives the expanded uncertainty stated by the source.
Legend:
[1] = xn = mol fraction of the nth substance listed; settings: 101.3 kPa, Liquid; for viscosity: Falling or rolling sphere viscometry; for mass density: Vibrating tube method
[2] = refractive index (Na D-line) (dimensionless); xn = mol fraction of the nth substance listed; settings: 298.15 K, 101.3 kPa, Liquid, Standard Abbe refractometry

CC(=O)O.CCCCN [butylammonium acetate] + CCO
[1]
Settings | mass density, 293.15 K [kg/m3] | mass density, 298.15 K [kg/m3] | mass density, 303.15 K [kg/m3] | mass density, 308.15 K [kg/m3] | mass density, 313.15 K [kg/m3] | viscosity, 293.15 K [mPa·s] | viscosity, 298.15 K [mPa·s] | viscosity, 303.15 K [mPa·s] | viscosity, 308.15 K [mPa·s] | viscosity, 313.15 K [mPa·s]
x1 = 0.0319 | 805.12 ± 0.38 | 800.93 ± 0.38 | 796.71 ± 0.38 | 792.46 ± 0.38 | 788.16 ± 0.38 | 1.644 ± 0.045 | 1.488 ± 0.041 | 1.349 ± 0.037 | 1.226 ± 0.034 | 1.117 ± 0.031
x1 = 0.0608 | 817.26 ± 0.39 | 813.17 ± 0.38 | 809.04 ± 0.38 | 804.88 ± 0.38 | 800.68 ± 0.38 | 2.184 ± 0.06 | 1.959 ± 0.054 | 1.764 ± 0.048 | 1.593 ± 0.044 | 1.442 ± 0.04
x1 = 0.0999 | 831.76 ± 0.39 | 827.77 ± 0.39 | 823.74 ± 0.38 | 819.69 ± 0.38 | 815.6 ± 0.38 | 3.042 ± 0.084 | 2.707 ± 0.074 | 2.42 ± 0.067 | 2.171 ± 0.06 | 1.908 ± 0.052
x1 = 0.1977 | 860.95 ± 0.39 | 857.19 ± 0.39 | 853.35 ± 0.39 | 849.49 ± 0.39 | 845.68 ± 0.39 | 6.773 ± 0.19 | 5.903 ± 0.16 | 5.176 ± 0.14 | 4.557 ± 0.12 | 4.013 ± 0.11
x1 = 0.2965 | 883.07 ± 0.4 | 879.43 ± 0.4 | 875.76 ± 0.4 | 872.09 ± 0.4 | 868.39 ± 0.39 | 13.92 ± 0.38 | 11.88 ± 0.33 | 10.23 ± 0.28 | 8.831 ± 0.24 | 7.695 ± 0.21
x1 = 0.4008 | 901.46 ± 0.4 | 897.94 ± 0.4 | 894.4 ± 0.4 | 890.81 ± 0.4 | 887.18 ± 0.4 | 26.61 ± 0.73 | 22.28 ± 0.61 | 18.84 ± 0.52 | 16.06 ± 0.44 | 13.75 ± 0.38
x1 = 0.5005 | 915.65 ± 0.41 | 912.21 ± 0.41 | 908.76 ± 0.41 | 905.3 ± 0.4 | 901.83 ± 0.4 | 49.22 ± 1.4 | 40.2 ± 1.1 | 33.21 ± 0.91 | 27.76 ± 0.76 | 23.37 ± 0.64
x1 = 0.6454 | 932.09 ± 0.41 | 928.75 ± 0.41 | 925.39 ± 0.41 | 922.03 ± 0.41 | 918.66 ± 0.41 | 113.11 ± 4.1 | 90.9 ± 2.9 | 72.83 ± 2.1 | 59.18 ± 1.6 | 48.51 ± 1.3
x1 = 0.8019 | 945.97 ± 0.42 | 942.74 ± 0.42 | 939.48 ± 0.41 | 936.22 ± 0.41 | 932.94 ± 0.41 | 264.17 ± 15 | 201.81 ± 10 | 156.42 ± 6.9 | 122.42 ± 4.7 | 97.36 ± 3.3
x1 = 0.9009 | 953.34 ± 0.42 | 950.15 ± 0.42 | 946.94 ± 0.42 | 943.74 ± 0.42 | 940.53 ± 0.41 | 475.32 ± 36 | 347.84 ± 23 | 260.75 ± 15 | 197.78 ± 9.9 | 152.81 ± 6.6

[2]
Settings | refractive index
x1 = 0.0319 | 1.3681 ± 0.0011
x1 = 0.0608 | 1.3731 ± 0.0011
x1 = 0.0999 | 1.3804 ± 0.0011
x1 = 0.1977 | 1.3965 ± 0.0011
x1 = 0.2965 | 1.4073 ± 0.0011
x1 = 0.4008 | 1.4152 ± 0.0011
x1 = 0.5005 | 1.4219 ± 0.0011
x1 = 0.6454 | 1.4292 ± 0.0011
x1 = 0.8019 | 1.436 ± 0.0011
x1 = 0.9009 | 1.4396 ± 0.0011

CC(=O)O.CCCCN [butylammonium acetate] + CO
[1]
Settings | mass density, 293.15 K [kg/m3] | mass density, 298.15 K [kg/m3] | mass density, 303.15 K [kg/m3] | mass density, 308.15 K [kg/m3] | mass density, 313.15 K [kg/m3] | viscosity, 293.15 K [mPa·s] | viscosity, 298.15 K [mPa·s] | viscosity, 303.15 K [mPa·s] | viscosity, 308.15 K [mPa·s] | viscosity, 313.15 K [mPa·s]
x1 = 0.0302 | 814.76 ± 0.4 | 810.3 ± 0.4 | 805.81 ± 0.39 | 801.29 ± 0.39 | 796.74 ± 0.39 | 0.883 ± 0.024 | 0.82 ± 0.023 | 0.763 ± 0.021 | 0.712 ± 0.02 | 0.666 ± 0.018
x1 = 0.0597 | 832.65 ± 0.4 | 828.3 ± 0.4 | 823.98 ± 0.39 | 819.63 ± 0.39 | 815.28 ± 0.39 | 1.237 ± 0.034 | 1.141 ± 0.031 | 1.053 ± 0.029 | 0.975 ± 0.027 | 0.905 ± 0.025
x1 = 0.1011 | 852.44 ± 0.39 | 848.33 ± 0.39 | 844.2 ± 0.39 | 840.05 ± 0.39 | 835.89 ± 0.39 | 1.933 ± 0.053 | 1.759 ± 0.048 | 1.607 ± 0.044 | 1.474 ± 0.041 | 1.357 ± 0.037
x1 = 0.1992 | 884.85 ± 0.4 | 881.05 ± 0.4 | 877.23 ± 0.4 | 873.38 ± 0.4 | 869.54 ± 0.4 | 4.825 ± 0.13 | 4.283 ± 0.12 | 3.828 ± 0.11 | 3.437 ± 0.094 | 3.099 ± 0.085
x1 = 0.301 | 906.27 ± 0.4 | 902.66 ± 0.4 | 899.04 ± 0.4 | 895.45 ± 0.4 | 891.77 ± 0.4 | 11.1 ± 0.3 | 9.608 ± 0.26 | 8.354 ± 0.23 | 7.294 ± 0.2 | 6.415 ± 0.18
x1 = 0.4023 | 920.99 ± 0.41 | 917.52 ± 0.41 | 914.03 ± 0.41 | 910.53 ± 0.41 | 907.04 ± 0.4 | 23.22 ± 0.64 | 19.57 ± 0.54 | 16.66 ± 0.46 | 14.34 ± 0.39 | 12.54 ± 0.34
x1 = 0.4995 | 931.42 ± 0.41 | 928.03 ± 0.41 | 924.64 ± 0.41 | 921.23 ± 0.41 | 917.83 ± 0.41 | 44.76 ± 1.2 | 36.68 ± 1 | 30.45 ± 0.84 | 25.59 ± 0.7 | 21.65 ± 0.59
x1 = 0.6524 | 943.29 ± 0.42 | 940 ± 0.41 | 936.69 ± 0.41 | 933.39 ± 0.41 | 930.08 ± 0.41 | 115.48 ± 4.3 | 92.51 ± 3 | 69.01 ± 2 | 53.46 ± 1.4 | 47.61 ± 1.3
x1 = 0.7993 | 951.52 ± 0.42 | 948.31 ± 0.42 | 945.07 ± 0.42 | 941.83 ± 0.41 | 938.59 ± 0.41 | 256.45 ± 15 | 195.97 ± 9.7 | 151.07 ± 6.5 | 118.32 ± 4.4 | 94.24 ± 3.1
x1 = 0.8988 | 955.88 ± 0.42 | 952.69 ± 0.42 | 949.49 ± 0.42 | 946.3 ± 0.42 | 943.09 ± 0.42 | 418.49 ± 30 | 312.52 ± 19 | 242.56 ± 13 | 183.85 ± 8.8 | 142.67 ± 6

[2]
Settings | refractive index
x1 = 0.0302 | 1.3413 ± 0.0004
x1 = 0.0597 | 1.3526 ± 0.0004
x1 = 0.1011 | 1.3665 ± 0.0004
x1 = 0.1992 | 1.3878 ± 0.0004
x1 = 0.301 | 1.403 ± 0.0004
x1 = 0.4023 | 1.4144 ± 0.0004
x1 = 0.4995 | 1.4212 ± 0.0004
x1 = 0.6524 | 1.4316 ± 0.0004
x1 = 0.7993 | 1.4365 ± 0.0004
x1 = 0.8988 | 1.4398 ± 0.0004
